Reference: ChEMBL document CHEMBL1147867, “Identification of antitumour activity of novel derivatives of 8-aryl-2,6,7,8-tetrahydroimidazo[2,1-c][1,2,4]triazine-3,4-dione and 8-aryl-4-imino-2,3,7,8-tetrahydroimidazo[2,1-c][1,2,4]triazin-3(6H)-one” (Bioorg Med Chem, 2007)
In brackets after ≈: the same amount, converted by molar mass.

How the values were obtained:
[1] = Cytotoxicity against Vero cells at 10 ug/ml after 72 hrs; type: cell-based; conditions: chlorocebus sabaeus, read-out: Inhibition
[2] = Cytotoxicity against Vero cells at 50 ug/ml after 72 hrs; type: cell-based; conditions: chlorocebus sabaeus, read-out: Inhibition
[3] = Cytotoxicity against human LS180 cells at 10 ug/ml after 72 hrs; type: functional; conditions: LS180, 72 h
[4] = Cytotoxicity against human LS180 cells at 50 ug/ml after 72 hrs; type: functional; conditions: LS180, 72 h
HeLa [5] = assay: Cytotoxicity against human HeLa cells at 10 ug/ml after 72 hrs; type: functional
HeLa [6] = assay: Cytotoxicity against human HeLa cells at 50 ug/ml after 72 hrs; type: functional
T47D [7] = assay: Cytotoxicity against human T47D cells at 10 ug/ml after 72 hrs; type: functional
T47D [8] = assay: Cytotoxicity against human T47D cells at 50 ug/ml after 72 hrs; type: functional
A549 [9] = assay: Anticancer activity against human A549 cells at 10 ug/ml after 72 hrs; type: functional; conditions: A549, 72 h
A549 [10] = assay: Anticancer activity against human A549 cells at 50 ug/ml after 72 hrs; type: functional; conditions: A549, 72 h
[11] = Cell viability in HSF cells at 1 uM after 24 hrs by MTT assay; type: cell-based, Fibroblast; conditions: human, read-out: Activity
[12] = Cell viability in HSF cells at 50 uM after 24 hrs by MTT assay; type: cell-based, Fibroblast; conditions: human, read-out: Activity
[13] = Cell viability in HSF cells at 100 uM after 24 hrs by MTT assay; type: functional, Homo sapiens, Fibroblast
RPMI-8226 [14] = assay: Cell viability in human RPMI 8226 ECACC 87012702 cancer cells at 1 uM after 24 hrs by MTT assay; type: functional
[15] = Acute toxicity in mouse; type: organism-based; conditions: in vivo
RPMI-8226 [16] = assay: Cell viability in human RPMI 8226 ECACC 87012702 cancer cells at 50 uM after 24 hrs by MTT assay; type: functional
RPMI-8226 [17] = assay: Cell viability in human RPMI 8226 ECACC 87012702 cancer cells at 100 uM after 24 hrs by MTT assay; type: functional
Staphylococcus aureus = assay: Antibacterial activity against Staphylococcus aureus after 24 hrs by microdilution broth method; type: functional
[18] = tested on: Staphylococcus epidermidis; assay: Antibacterial activity against Staphylococcus epidermidis after 24 hrs by microdilution broth method; type: functional
Streptococcus pyogenes = assay: Antibacterial activity against Streptococcus pyogenes after 24 hrs by microdilution broth method; type: functional
Escherichia coli = assay: Antibacterial activity against Escherichia coli after 24 hrs by microdilution broth method; type: functional

| SMILES | cytotoxicity at 72 h, 10 ug/ml [1] [%] | cytotoxicity at 72 h, 50 ug/ml [2] [%] | inhibition at 10 µg/mL [3] [%] | inhibition at 50 µg/mL [4] [%] | inhibition at 10 µg/mL (HeLa [5]) [%] | inhibition at 50 µg/mL (HeLa [6]) [%] | inhibition at 10 µg/mL (T47D [7]) [%] | inhibition at 50 µg/mL (T47D [8]) [%] | inhibition at 10 µg/mL (A549 [9]) [%] | inhibition at 50 µg/mL (A549 [10]) [%] | viability at 24 h, 1 µM [11] [%] | viability at 24 h, 50 µM [12] [%] | Activity [13] [%] | Activity (RPMI-8226 [14]) [%] | Activity (RPMI-8226 [16]) [%] | Activity (RPMI-8226 [17]) [%] | MIC (Staphylococcus aureus) [µM] | MIC [18] [µM] | MIC (Escherichia coli) [µM] | further results |
| --- | --- | --- | --- | --- | --- | --- | --- | --- | --- | --- | --- | --- | --- | --- | --- | --- | --- | --- | --- | --- |
| N=c1c(=O)[nH]nc2n1CCN2c1cccc(Cl)c1 | 0 | 0 | 0 | 1 | 6 | 2 | 3 | 31 | 36 | 50 | – | – | – | – | – | – | – | – | – | – |
| O=c1[nH]nc2n(c1=O)CCN2c1cccc(Cl)c1 | 11 | 24 | 0 | 0 | 27 | 38 | 0 | 0 | 0 | 0 | 95 | 91 | 91 | 89 | 68 | 62 | – | – | – | LD50 [15]: > 2000 mg/kg |
| N/N=C1\NCCN1c1cccc(Cl)c1 | 0 | 10 | 8 | 0 | 0 | 0 | 5 | 0 | – | – | – | – | – | – | – | – | – | – | – | – |
| N/N=C1\NCCN1c1ccccc1Cl | 0 | 0 | 7 | 0 | 2 | 0 | 22 | 27 | – | – | – | – | – | – | – | – | – | – | – | – |
| N/N=C1\NCCN1c1ccccc1 | 0 | 0 | 1 | 0 | 6 | 3 | 0 | 0 | – | – | – | – | – | – | – | – | 41.1 (≈ 7.24 µg/mL) | 41.1 (≈ 7.24 µg/mL) | 41.1 (≈ 7.24 µg/mL) | MIC (Streptococcus pyogenes): 65.8 µM (≈ 11.6 µg/mL) |
| Cc1cccc(N2CCN/C2=N\N)c1C | 16 | 14 | 6 | 0 | 8 | 0 | 21 | 25 | – | – | – | – | – | – | – | – | 37.6 (≈ 7.68 µg/mL) | 18.8 (≈ 3.84 µg/mL) | 18.8 (≈ 3.84 µg/mL) | MIC (Streptococcus pyogenes): 75.2 µM (≈ 15.4 µg/mL) |
| COc1ccc(N2CCn3c2n[nH]c(=O)c3=O)cc1 | 0 | 10 | 0 | 46 | 6 | 0 | 7 | 21 | 0 | 0 | 94 | 92 | 94 | 98 | 99 | 99 | – | – | – | LD50 [15]: 1500 mg/kg |
| O=C(N[C@H](CO)[C@H](O)c1ccc([N+](=O)[O-])cc1)C(Cl)Cl [CHLORAMPHENICOL] | – | – | – | – | – | – | – | – | – | – | – | – | – | – | – | – | 12.1 (≈ 3.91 µg/mL) | 6 (≈ 1.94 µg/mL) | 12.1 (≈ 3.91 µg/mL) | – |
| N=c1c(=O)[nH]nc2n1CCN2c1ccccc1Cl | 0 | 2 | 6 | 2 | 0 | 0 | 0 | 0 | 6 | 16 | 100 | 104 | 101 | 93 | 94 | 93 | – | – | – | – |
| CC1(C)S[C@@H]2[C@H](NC(=O)[C@H](N)c3ccccc3)C(=O)N2[C@H]1C(=O)O [AMPICILLIN] | – | – | – | – | – | – | – | – | – | – | – | – | – | – | – | – | 35.8 (≈ 12.5 µg/mL) | 71.5 (≈ 25 µg/mL) | 35.8 (≈ 12.5 µg/mL) | – |
| N=c1c(=O)[nH]nc2n1CCN2c1ccc(Cl)cc1 | 0 | 0 | 0 | 5 | 8 | 0 | 16 | 27 | 25 | 27 | 98 | 84 | 74 | 94 | 76 | 64 | – | – | – | – |
| COc1ccccc1N1CCn2c1n[nH]c(=O)c2=O | 26 | 17 | 30 | 29 | 5 | 8 | 1 | 9 | 0 | 39 | 103 | 101 | 94 | 90 | 90 | 85 | – | – | – | LD50 [15]: 1100 mg/kg |
| COc1ccc(N2CCN/C2=N\N)cc1 | 0 | 0 | 4 | 9 | 0 | 0 | 17 | 23 | – | – | – | – | – | – | – | – | 29.9 (≈ 6.17 µg/mL) | 18.7 (≈ 3.86 µg/mL) | 15 (≈ 3.09 µg/mL) | MIC (Streptococcus pyogenes): 59.8 µM (≈ 12.3 µg/mL) |
| N/N=C1\NCCN1c1ccc(Cl)cc1 | – | – | – | – | – | – | – | – | – | – | – | – | – | – | – | – | 29.5 (≈ 6.21 µg/mL) | 18.4 (≈ 3.88 µg/mL) | 36.9 (≈ 7.77 µg/mL) | MIC (Streptococcus pyogenes): 59.1 µM (≈ 12.5 µg/mL) |
| Cc1ccccc1N1CCn2c1n[nH]c(=O)c2=O | 0 | 0 | 0 | 0 | 0 | 0 | 0 | 0 | 24 | 29 | 104 | 110 | 108 | 101 | 121 | 133 | – | – | – | – |
| Cc1ccc(N2CCn3c2n[nH]c(=O)c3=O)cc1 | 0 | 0 | 2 | 0 | 0 | 11 | 14 | 22 | 20 | 31 | 93 | 97 | 92 | 95 | 91 | 83 | – | – | – | LD50 [15]: 1800 mg/kg |
| Cc1cccc(N2CCn3c2n[nH]c(=O)c3=O)c1C | 18 | 18 | 0 | 0 | 0 | 0 | 21 | 22 | 0 | 0 | – | – | – | – | – | – | – | – | – | – |
| O=c1[nH]nc2n(c1=O)CCN2c1ccc(Cl)c(Cl)c1 | – | – | – | – | – | – | – | – | – | – | 109 | 90 | 90 | 98 | 35 | 25 | – | – | – | – |
| Cc1ccccc1N1CCN/C1=N\N | – | – | – | – | – | – | – | – | – | – | – | – | – | – | – | – | 39.3 (≈ 7.48 µg/mL) | 31.4 (≈ 5.97 µg/mL) | 15.7 (≈ 2.99 µg/mL) | MIC (Streptococcus pyogenes): 78.6 µM (≈ 15 µg/mL) |
| Cc1ccc(N2CCN/C2=N\N)cc1 | 0 | 9 | 11 | 15 | 3 | 0 | 12 | 17 | – | – | – | – | – | – | – | – | – | – | – | – |
| COc1ccccc1N1CCN/C1=N\N | – | – | – | – | – | – | – | – | – | – | – | – | – | – | – | – | 37.4 (≈ 7.71 µg/mL) | 37.4 (≈ 7.71 µg/mL) | 29.9 (≈ 6.17 µg/mL) | MIC (Streptococcus pyogenes): 74.8 µM (≈ 15.4 µg/mL) |
| O=c1[nH]nc2n(c1=O)CCN2c1ccccc1 | 7 | 30 | 0 | 12 | 0 | 0 | 0 | 0 | 0 | 17 | 93 | 95 | 94 | 96 | 96 | 86 | – | – | – | LD50 [15]: 1400 mg/kg |
| N=c1c(=O)[nH]nc2n1CCN2c1ccccc1 | 26 | 30 | 0 | 1 | 30 | 34 | 0 | 3 | 7 | 38 | 101 | 103 | 106 | 95 | 103 | 106 | – | – | – | – |
